Reference: US11767295B2, “Isoindole derivative” (TIANJIN HEMAY PHARMACEUTICAL CO., LTD., priority 2018, dated 2023)

Columns and labels:
Format in all cases: in vivo
[1] = test system: DNCB-induced atopic dermatitis in Balb/c mice; assay: Efficacy evaluation test of DNCB-induced atopic dermatitis in Balb/c mice model (Biological Example 1); settings: BID × 10
Procedure: 60 healthy male SPF Balb/c mice, each of which the body weight was 19-21 g, were randomly divided into 6 groups by body weight. There were 10 mice in each group.
(§1) Before the test, the hair around the right ear of the mouse was removed to reduce the interference in the drug adhesion to the hair.
The start of the test was recorded as Day 1. The specific time for measuring ear thickness was slightly adjusted based on FIG. 1. After the end of the 18th day of the test, blood was taken from each animal to detect the concentration of immunoglobulin (IgE) in the serum (in accordance with the kit instructions). Both ears of the animal were cut off. Ear pieces were cut by an 8 mm punch at the fixed position of the ears and weighed. Differences in the swelling degrees of two ears were calculated.
The changes in mouse ear thickness and the ear weights of the same area and the IgE concentrations in the serum among different groups on the 18th day were analyzed and compared statistically with One-Way Anova in SPSS 17, respectively. The G test method was used to delete outliers. p<0.05 indicated there were statistical differences. Ear swelling degree (mg)=right ear weight (mg)−left ear weight (mg); Ear thickness change (mm)=right ear thickness (mm)−left ear thickness (mm); Inhibitory rate of ear swelling degree (%)=1−(ear swelling degree of drug administration group−ear swelling degree of blank control group)/(ear swelling degree of model control group−ear swelling degree of blank control group)×100%; Inhibitory rate of ear thickness change (%)=1−(ear thickness change of drug administration group−ear thickness change of blank control group)/(ear thickness change of model control group−ear thickness change of blank control group)×100%; Inhibitory rate of IgE (%)=1−(IgE concentration in administration group−IgE concentration in blank control group)/(IgE concentration in model control group−IgE concentration in blank control group)×100%.

[2] = test system: Phorbol ester (TPA)-induced ear swelling in mice; assay: Inhibition of phorbol ester (TPA)-induced ear swelling in mice (Biological Example 5); settings: ICR mice, 5 hours after TPA modeling; for Ear Swelling Rate / Inhibitory Rate of Ear Swelling Degree: 2 mg/mouse on right ear; for Ear Swelling Rate: (right−left)/left ear weight; for Inhibitory Rate of Ear Swelling Degree: vs model and blank control; for Ear Swelling Degree: 50 mg/mL in acetone, 40 μL in 2 administrations (2 mg/mouse)
Procedure: (§2) 72 male ICR mice were selected and divided into 9 groups. There were 8 mice in each group.
(§3) Before the test, the animals were grouped and the hair around the right ear of the mice was removed.
(§4) 20 μL of respective drug was applied to the animals in each test group (a blank solvent was applied to the model control group). Modeling and induction were carried out after 1 h 10 min. Except for the blank group, 20 μL of TPA at a concentration of 125 μg/mL were applied to the right ears of the animals for induction. After induction for 10 minutes, 20 μL of respective drug were applied to the right ears of the animals in each test group (a blank solvent was applied to the model control group).
After modeling for 5 hours, ear pieces of both sides on the same location of animals in each group were taken with a punch and weighed to calculate the ear swelling degree, ear swelling rate and inhibitory rate.
The ear swelling degree and ear swelling rate after modeling and administration for 5 hours were analyzed and tested with One-Way ANOVA multiple-group test index in SPSS17.0. P<0.05 indicated there were statistical differences. Ear swelling degree (mg)=right ear weight (mg)−left ear weight (mg); Ear swelling rate (%)=(right ear weight−left ear weight)/left ear weight×100%; Inhibitory rate of ear swelling degree (%)=1−(ear swelling degree of drug administration group−ear swelling degree of blank control group)/(ear swelling degree of model control group−ear swelling degree of blank control group)×100%.

[3] = test system: DNCB-induced atopic dermatitis in Balb/c mice; assay: Efficacy evaluation test of DNCB-induced atopic dermatitis in Balb/c mice model (Biological Example 2); settings: BID × 10; for Inhibitory Rate of Ear Swelling / Weight Changes of Animals, Day 10 / Weight Changes of Animals, Day 17 / Weight Changes of Animals, Day 18 / Ear Swelling Degree / IgE Concentration / Inhibitory Rate of IgE Concentration: 1 mg/mouse on ear; for Inhibitory Rate of Ear Swelling / Ear Swelling Degree / IgE Concentration / Inhibitory Rate of IgE Concentration: 18th day; for Inhibitory Rate of Ear Swelling / Inhibitory Rate of IgE Concentration: vs model and blank control; for Weight Changes of Animals, Day 1 / Weight Changes of Animals, Day 10 / Weight Changes of Animals, Day 17 / Weight Changes of Animals, Day 18: Balb/c mice, Mean ± S.D.; for Weight Changes of Animals, Day 1: 1 mg/mouse (50 mg/mL, 20 μL) on ear; for Ear Swelling Degree: right minus left ear piece weight; for IgE Concentration / Inhibitory Rate of IgE Concentration: serum
Procedure: 70 healthy male SPF Balb/c mice, each of which the weight was 19-21 g, were randomly divided into 7 groups by body weight. There were 10 mice in each group.
as §1
The start of the test was recorded as Day 1. After the end of the 18th day of the test, blood was taken from each animal to detect the concentration of immunoglobulin (IgE) in the serum (in accordance with the kit instructions). Both ears of the animal were cut off. Ear pieces were cut by an 8 mm punch at the fixed position of the ears and weighed. Differences in the swelling degrees of two ears were calculated.
The IgE concentrations in the serum of different groups on the 18th day were analyzed and compared statistically with One-Way Anova in SPSS 17, respectively. The G test method was used to delete outliers. p<0.05 indicated there were statistical differences. Ear swelling degree (mg)=right ear weight (mg)−left ear weight (mg); Inhibitory rate of ear swelling degree (%)=1−(ear swelling degree of drug administration group−ear swelling degree of blank control group)/(ear swelling degree of model control group−ear swelling degree of blank control group)×100%; Inhibitory rate of IgE (%)=1−(IgE concentration in administration group−IgE concentration in blank control group)/(IgE concentration in model control group−IgE concentration in blank control group)×100%.

[4] = test system: Phorbol ester (TPA)-induced ear swelling in mice; assay: Inhibition of phorbol ester (TPA)-induced ear swelling in mice (Biological Example 6); settings: ICR mice, 5 hours after TPA modeling; for Ear Swelling Rate / Inhibitory Rate of Ear Swelling Degree: 2 mg/mouse on right ear; for Ear Swelling Rate: (right−left)/left ear weight; for Inhibitory Rate of Ear Swelling Degree: vs model and blank control; for Ear Swelling Degree: 50 mg/mL in acetone, 40 μL in 2 administrations (2 mg/mouse)
Procedure: as §2, §3, §4
After modeling for 5 hours, ear pieces of both sides at the same location of animals in each group were taken with a punch and weighed to calculate the ear swelling degree, ear swelling rate and inhibitory rate.
The ear swelling degree and ear swelling rate after modeling and administration for 5 hours were analyzed and tested with One-Way ANOVA multiple-group test index in SPSS17.0. […] Ear swelling degree (mg)=right ear weight (mg)−left ear weight (mg); Ear swelling rate (%)=(right ear weight−left ear weight)/left ear weight×100%; Inhibitory rate of ear swelling degree (%)=1−(swelling degree of drug administration group−swelling degree of blank control group)/(swelling degree of model control group−swelling degree of blank control group)×100%.

[5] = Balb/c mice, 1 mg/mouse on ear, Day 10, Mean ± S.D.
[6] = Balb/c mice, 1 mg/mouse on ear, Day 17, Mean ± S.D.
[7] = Balb/c mice, 1 mg/mouse on ear, Day 18, Mean ± S.D.

COC(=O)CC(c1ccc(OC)c(OC)c1)N1C(=O)c2cccc(NC(C)=O)c2C1=O (stereo not drawn) [Example 3, methyl 3-(4-acetamido-1,3-dioxoisoindolin-2-yl)-3-(3,4-dimethoxyphenyl)propionate]
Inhibitory Rate of Ear Swelling Degree ([1]; 1 mg/mouse on ear, 18th day, vs model and blank control): 37.8% | Weight Changes of Animals, Day 1 ([1]; Balb/c mice, 1 mg/mouse (50 mg/mL, 20 μL) on ear, Day 1, Mean ± S.D.): 20.6 ± 0.8 g | Inhibitory Rate of Ear Thickness ([1]; Balb/c mice, 1 mg/mouse on ear, 18th day, vs model and blank control): 34.0% | Ear Thickness Change, Day 1 ([1]; Balb/c mice, 1 mg/mouse on ear, Day 1, Mean ± S.D.): 0.21 ± 0.01 mm | Ear Thickness Change, Day 10 [1, 5]: 0.38 ± 0.10 mm | Weight Changes of Animals, Day 10 [1, 5]: 22.3 ± 1.4 g | Ear Thickness Change, Day 17 [1, 6]: 0.58 ± 0.09 mm | Weight Changes of Animals, Day 17 [1, 6]: 22.1 ± 1.8 g | Ear Thickness Change, Day 18 [1, 7]: 0.58 ± 0.10 mm | Weight Changes of Animals, Day 18 [1, 7]: 21.7 ± 1.8 g | Ear Thickness ([1]; Table 4, Balb/c mice, 1 mg/mouse on ear, 18th day): 0.58 ± 0.10 mm | Ear Swelling Degree ([1]; right minus left ear piece weight (8 mm punch), 1 mg/mouse on ear, 18th day): 15.7 ± 4.5 mg | IgE Concentration ([1]; serum, 1 mg/mouse on ear, 18th day): 6526.5 ± 2171.9 ng/mL | Inhibitory Rate of IgE Concentration ([1]; serum, 1 mg/mouse on ear, 18th day, vs model and blank control): 27.0% | Ear Swelling Rate [2]: 42.1 ± 19.3 % | Inhibitory Rate of Ear Swelling Degree [2]: 83.7% | Ear Swelling Degree [2]: 6.0 ± 2.5 mg

COC(=O)CC(c1ccc(OC)c(OC(C)C)c1)N1C(=O)c2cccc(NC(C)=O)c2C1=O (stereo not drawn) [Example 46, methyl 3-(4-acetamido-1,3-dioxoisoindolin-2-yl)-3-(3-isopropoxy-4-methoxyphenyl)propionate]
Inhibitory Rate of Ear Swelling [3]: 36.2% | Weight Changes of Animals, Day 1 [3]: 21.6 ± 0.7 g | Weight Changes of Animals, Day 10 [3]: 22.6 ± 0.6 g | Weight Changes of Animals, Day 17 [3]: 23.0 ± 0.7 g | Weight Changes of Animals, Day 18 [3]: 23.1 ± 0.7 g | Ear Swelling Degree [3]: 18.6 ± 3.9 mg | IgE Concentration [3]: 4429.8 ± 1713.9 ng/mL | Inhibitory Rate of IgE Concentration [3]: 51.7% | Ear Swelling Rate [4]: 44.9 ± 35.5 % | Inhibitory Rate of Ear Swelling Degree [4]: 82.0% | Ear Swelling Degree [4]: 6.4 ± 5.3 mg

CCOc1cc(C(CC(=O)OC)N2C(=O)c3cccc(NC(C)=O)c3C2=O)ccc1OC1CCCC1 (stereo not drawn) [Example 20, methyl 3-(4-acetamido-1,3-dioxoisoindolin-2-yl)-3-(3-ethoxy-4-cyclopentyloxyphenyl)propionate]
Ear Swelling Rate [4]: 63.9 ± 19.3 % | Inhibitory Rate of Ear Swelling Degree [4]: 73.0% | Ear Swelling Degree [4]: 8.8 ± 2.8 mg

CCCOc1cc(C(CC(=O)OC)N2C(=O)c3cccc(NC(C)=O)c3C2=O)ccc1OC (stereo not drawn) [Example 29, methyl 3-(4-acetamido-1,3-dioxoisoindolin-2-yl)-3-(3-propoxy-4-methoxyphenyl)propionate]
Ear Swelling Rate [4]: 46.8 ± 33.9 % | Inhibitory Rate of Ear Swelling Degree [4]: 81.5% | Ear Swelling Degree [4]: 6.5 ± 4.6 mg

CCOc1cc(C(CC(=O)OC)N2C(=O)c3cccc(O)c3C2=O)ccc1OC (stereo not drawn) [Example 32, methyl 3-(4-hydroxy-1,3-dioxoisoindolin-2-yl)-3-(3-ethoxy-4-methoxyphenyl)propionate]
Ear Swelling Rate [4]: 93.3 ± 28.1 % | Inhibitory Rate of Ear Swelling Degree [4]: 55.6% | Ear Swelling Degree [4]: 13.4 ± 4.0 mg

CCOc1cc(C(CC(=O)OC)N2C(=O)c3cccc(NC(C)=O)c3C2=O)ccc1OC(C)C (stereo not drawn) [Example 18, methyl 3-(4-acetamido-1,3-dioxoisoindolin-2-yl)-3-(3-ethoxy-4-isopropoxyphenyl)propionate]
Ear Swelling Rate [4]: 33.9 ± 14.0 % | Inhibitory Rate of Ear Swelling Degree [4]: 88.1% | Ear Swelling Degree [4]: 4.8 ± 1.9 mg

COC(=O)CC(c1ccc(OC)c(OC2CCCC2)c1)N1C(=O)c2cccc(NC(C)=O)c2C1=O (stereo not drawn) [Example 30, methyl 3-(4-acetamido-1,3-dioxoisoindolin-2-yl)-3-(3-cyclopentyloxy-4-methoxyphenyl)propionate]
Ear Swelling Rate [4]: 85.0 ± 27.4 % | Inhibitory Rate of Ear Swelling Degree [4]: 60.8% | Ear Swelling Degree [4]: 12.0 ± 3.5 mg

CCOC(=O)CC(c1ccc(OC)c(OCC)c1)N1C(=O)c2cccc(NC(C)=O)c2C1=O (stereo not drawn) [Example 6, ethyl 3-(4-acetamido-1,3-dioxoisoindolin-2-yl)-3-(3-ethoxy-4-methoxyphenyl)propionate]
Ear Swelling Rate [2]: 36.4 ± 11.9 % | Inhibitory Rate of Ear Swelling Degree [2]: 87.3% | Ear Swelling Degree [2]: 5.1 ± 1.6 mg | Inhibitory Rate of Ear Swelling [3]: 41.7% | Weight Changes of Animals, Day 1 [3]: 21.4 ± 0.7 g | Weight Changes of Animals, Day 10 [3]: 22.8 ± 1.4 g | Weight Changes of Animals, Day 17 [3]: 23.3 ± 1.4 g | Weight Changes of Animals, Day 18 [3]: 22.7 ± 1.5 g | Ear Swelling Degree [3]: 17.1 ± 4.0 mg | IgE Concentration [3]: 5871.9 ± 2973.8 ng/mL | Inhibitory Rate of IgE Concentration [3]: 32.8%
